In US20160031909A1, “PORPHYRAZINE OPTICAL AND DUAL OPTICAL/ MR CONTRAST AND THERAPEUTIC AGENTS” (HOFFMAN/BARRETT, LLC, priority 2013, published 2016):
Entries after “also recorded” stand apart in the source; their conditions may differ. Read-outs that look alike come from different tables or passages of the source.

Legend:
[1] = Octanol-water partition coefficients by ICP-MS; type: physicochemical; conditions: 1:1 water:1-octanol, 48 hours, Gd by ICP-MS
Description: Octanol-water partition coefficients (log P) were measured by ICP-MS to determine the hydrophilicity of the Pz-Gd(III) conjugates (4d, 18). The hydrophilicity of a molecule dictates cellular permeability where a balance in amphiphilicity is desired for ease of aqueous administration and maximum cellular uptake (19). Cu-Pz-Gd(III) is slightly more hydrophobic than Zn-Pz-Gd(III) and both conjugates are more hydrophobic than DOTA-Gd(III).
DOTA-Gd(I I I), Zn-Pz-Gd(III), and Cu-Pz-Gd(III) (0.5 mg) were dissolved in 1 mL of a 1:1 mixture of water:1-octanol, respectively. After shaking for 30 seconds, these tubes were placed on a rotator for gentle mixing to equilibrate for 48 hours. Gd(III) concentration in each layer was determined by ICP-MS. Partition coefficients were calculated from the equation log P=log(Co/Cw), where log P is the logarithm of the partition coefficient, Co is the concentration of Gd in the 1-octanol layer, and Cw is the concentration of Gd in the water layer.

[2] = tested on: MDA-MB-231 orthotopic breast tumor; assay: In vivo tumor MRI in orthotopic breast tumor model; parameters: species or system athymic nude mice; conditions: 0-225 min after tail vein injection; Cu-Pz-Gd(III) 450 nmol (50 mg/kg), DOTA-Gd(III) 900 nmol (25 mg/kg)
Description: Cu-Pz-Gd(III) was examined as a contrast agent in vivo in an orthotopic breast tumor model in athymic nude mice. MDA-MB-231 breast tumor cells expressing mCherry fluorescent protein were implanted in the mammary fat pad of mice and tumors were allowed to grow to about 5 mm in diameter at which time mice were treated with 450 nmol (50 mg/kg) Cu-Pz-Gd(III) together with saline treated control mice (FIG. 3A).
In a separate experiment focusing only on short time points (0-225 min), groups of mice (n=3) were treated with Cu-Pz-Gd(III) (450 nmol, 50 mg/kg), DOTA-Gd(I I I) (900 nmol, 25 mg/kg), and saline as a negative control (FIG. 4). Mice were imaged continuously after tail vein injections. […] Regions of interest (ROIs) were defined outside the periphery of tumors, at the inner rim, and at the center.
MDA-MB-231 cells (1×10^6) expressing mCherry fluorescent protein were inoculated subcutaneously (1:1 v/v matrigel:PBS) on the right mammary fat pad. Cells were maintained in DMEM media supplemented with 10% FBS prior to inoculation. The athymic nude mice, Crl:NU(NCr)-Foxnl^nm, were purchased from Charles River, Portage at 5-6 weeks old and 16-18 gram were allowed to acclimate for 5 days. One week post inoculation, each animal was screened for mCherry fluorescence wavelength using the IVIS small animal fluorescence imaging system to verify presence of the tumor.
Mice were anesthetized in an induction chamber with 3% inhaled isoflurane in oxygen, then transferred to an imaging bed with circulating warm water heating system, MRI compatible respiratory monitoring (SA Instruments, Stony Brook, N.Y.) and 1-2% isoflurane delivered via nosecone to maintain a surgical plane of anesthesia with respiratory rate at 90-100 breaths/min Mice were imaged prone with the tumor centered in a 40 mm diameter quadrature volume coil (Bruker Biospec, Billerica, Mass.). An AutoPac automated positioning system was used to reproducibly center the animals in the MRI system.
Mice were positioned in the MRI scanner as described above and localizer images were acquired. T1 maps were acquired using a FAIR-RARE non-selective inversion recovery sequence with static TR (18,000 ms) and TE (6.1 ms), and variable TI (30.5, 100, 200, 300, 500, 600, 700, 800, 900, 1000, 1100, 1200, 1300, 1400, 1600, 2000, 2500, 3000, 3500, 4000, 4500, 5000, and 6000 ms). Imaging parameters were as follows: field of view (FOV)=40×20 mm^2, matrix size(MTX)=512×133 pixels, number of slices=1, slice thickness=1.0 mm, and 1 average (total scan time=5 m 26 s).
Images were acquired at baseline, and 4, 24, and 48 hours after injection of 150 μL of imaging agent via the tail vein. One control animal was injected with saline; the remaining 9 animals were injected with 450 nmol Cu-Pz-Gd(III). Three animals were sacrificed after 4 hour, 24 hour, and 48 hour timepoints, respectively; the organs were collected for ICP-MS (described below) to measure biodistribution.
Mice were positioned in the MRI scanner as described above and localizer images were acquired. To improve signal to noise ratio, reduce respiratory artifacts, and increase tumor coverage, for this study we used a multi slice T1 map acquired using a variable repetition time saturation recovery sequence (RARE-VTR) with static TE (8.2 ms) and variable TR (175, 300, 600, 800, 1200, 2000, 4000 ms). Imaging parameters were as follows: FOV=10×7.5 mm, MTX=80×60, number of axial slices=5, slice thickness=1.0 mm, and 1 average (total scan time=6 min 48 sec). […]

[3] = monomeric DOTA-Gd(III), shown for comparison (ref 17), cited from earlier work
[4] = Relaxation time measurements (longitudinal relaxivity r1); type: physicochemical; conditions: water, 1.41 T (60 MHz), 37° C.
Text: The efficiency of a contrast agent in reducing the longitudinal relaxation time of water protons is defined in terms as relaxivity (mM^−1 s^−1) (14). It has been predicted by Solomon-Bloembergen-Morgan theory that a slow molecule tumbling of an MRI agent causes an increase in rotational correlation time, Tr, which in turn results in increase in relaxivity (14, 15). A common approach to increase relaxivity by slowing down the molecular tumbling is to attach Gd(III) complexes to a macromolecule through rigid linkages (12,16). The relaxivity of the monomeric DOTA-Gd(III) (DOTA is 1,4,7,10-tetraazacyclododecane-N,N,N″,N″-tetraacetic acid) used in the clinic is shown for comparison (17). […] Both the Zn-Pz-Gd(III) and Cu-Pz-Gd(III) had higher longitudinal relaxivity than DOTAGd(III).
Solutions of M-Pz-Gd(III) (M=Zn, Cu) conjugates were dissolved in 500 μL of filtered, deionized H20 (18.2 MΩ·cm) for T1 acquisition. Relaxation times were measured on a Bruker mq60 NMRanalyzer equipped with Minispec v2.51 Rev.00/NT software (Bruker Biospin, Billerica, Mass., USA) operating at 1.41 T (60 MHz) and 37° C. T1 relaxation times were measured using an inversion recovery pulse sequence (T1—ir_mb) using the following parameters: 4 scans per point, 10 data points for fitting, mono-exponential curve fitting, phase cycling, 10 ms first pulse separation, and a recycle delay and final pulse separation≧5 T1. The gadolinium concentrations of each solution were determined using ICP-MS. The inverse of the longitudinal relaxation time (1/ T1, s^−1) was plotted against gadolinium concentration (mM) and fitted to a straight line with an R^2>0.99. The slope of the fitted line was recorded as the relaxivity, r1.

Water solubility = type: physicochemical
Description: The pz platform is diol pz 285, which was prepared and activated for nucleophilic substitution by arenesulfonylation to produce bis-tosylate pz 286 as previously described (13). Subsequent nucleophilic substitution of pz 286 with excess sodium azide gave diazide pz 288, which was suitable for conjugation via cycloaddition reactions with the alkyne-functionalized Gd595. (Scheme 1). The use of catalytic copper(II) sulfate in this conjugation reaction partially metallates the pz core. To address this issue, pz 288 either was metallated with ZnCl2 prior to reaction with the alkyne or a stoichiometric amount of the […] catalyst was used to ensure that the pz core was completely cuprated. Standard cycloaddition reaction conditions were subsequently used to conjugate metallated pz diazides with Gd595 to produce Zn-Pz-Gd(III) and Cu-Pz-Gd(III) conjugates, which were isolated by preparative HPLC in 52% and 57% isolated yields, respectively. Trace amounts of Zn-Pz-Gd(III) were transmetallated to Cu-Pz-Gd(III), but this small amount was removed during purification.

| Compound | log P [1] | tumor T1 over time [2] | Molecular r1 ([3]; 1 Gd(III)) | Ionic r1 [3] | Ionic r1 ([4]; per Gd(III)) | Molecular r1 ([4]; per molecule (2 Gd(III))) | water solubility (Water solubility) |
| --- | --- | --- | --- | --- | --- | --- | --- |
| O=C([O-])CN1CCN(CC(=O)[O-])CCN(CC(=O)O)CCN(CC(=O)[O-])CC1.[Gd+3] [DOTA-Gd(III), reference compound] | −3.42 | dips transiently but returns quickly to baseline; also recorded: enters the tumor, but is cleared relatively rapidly; also recorded: initial decrease in tumor T1 followed by recovery of signal | 3.1 mM^−1 S^−1 | 3.1 mM^−1 S^−1 | – | – | – |
| Zn[Pz(C17H27N5O7Gd)2]. Pz=18,21-bis(2-(1H-1,2,3-triazole-4-yl) ethoxy)-tris-[1,4-dioxino[g,l,q](2R,3R)-2,3-dimethoxy-2,3-dimethyll 25H,27H-benzo[b]porphyrazine; C17H27N5O7Gd=N-methyl-2-aminoacetamide-4,7,10-tris(carboxymethyl)-1,4,7,10-tetraazacyclododecylgadolinium(III)) [Zn-Pz-Gd(III)] | −3.13 | – | – | – | 6.9 mM^−1 S^−1 | 13.8 mM^−1 S^−1 | freely water soluble |
